Our source for the IC50 values is patent US9067905B2, “Sulphone compounds and methods of making and using same” (Zafgen, Inc., priority 2009, dated 2015).

The assay concerns the target T1, recombinant human MetAP2 (Homo sapiens, UniProt P50579).
T1 construct: Flag; made in house; host or cells: Sf9 insect cells
The experiment in a line: Inhibition of recombinant human MetAP2 activity (Amplex red fluorescence assay). In kind it is biochemical. The following applies: manganese Flag-MetAP2, 0.75 mM Methionine-Alanine-Serine substrate, 30 minutes at 25° C., pH 7.5, 1% DMSO. The procedure: Compounds are tested for their capacity to inhibit recombinant human MetAP2 activity using the following assay.
Human recombinant Flag-MetAP2 expressed in Sf9 cells followed by affinity purification and EDTA treatment to remove endogenous active site cation is dialysed against MnCl2 to produce the manganese enzyme used in the assay. The assay is carried out for 30 minutes at 25° C. in 50 mM HEPES buffer containing 100 mM NaCl, pH 7.5 the presence of 0.75 mM Methionine-Alanine-Serine (MAS) substrate and 50 μg/ml amino acid oxidase using a dilution of purified MetAP2 giving approximately 50,000 RFU control activity. Cleavage of the substrate by MetAP2 and oxidation of free methionine by amino acid oxidase is detected and quantified using fluorescence generated by Amplex red (10-acetyl-3,7-dihydroxyphenoxazine) in combination with horseradish peroxidase which detects H2O2 released during the oxidation step. The fluorescent signal is detected using a multiwell fluorimeter. Compounds are diluted in DMSO prior to addition to assay buffer, the final DMSO concentration in the assay being 1%.
The IC50 is defined as the concentration at which a given compound achieves 50% inhibition of control. IC50 values are calculated using the XLfit software package (version 2.0.5).

Structures can show the parent of a compound that is named as a salt.

T1 sequence (P50579 whole entry): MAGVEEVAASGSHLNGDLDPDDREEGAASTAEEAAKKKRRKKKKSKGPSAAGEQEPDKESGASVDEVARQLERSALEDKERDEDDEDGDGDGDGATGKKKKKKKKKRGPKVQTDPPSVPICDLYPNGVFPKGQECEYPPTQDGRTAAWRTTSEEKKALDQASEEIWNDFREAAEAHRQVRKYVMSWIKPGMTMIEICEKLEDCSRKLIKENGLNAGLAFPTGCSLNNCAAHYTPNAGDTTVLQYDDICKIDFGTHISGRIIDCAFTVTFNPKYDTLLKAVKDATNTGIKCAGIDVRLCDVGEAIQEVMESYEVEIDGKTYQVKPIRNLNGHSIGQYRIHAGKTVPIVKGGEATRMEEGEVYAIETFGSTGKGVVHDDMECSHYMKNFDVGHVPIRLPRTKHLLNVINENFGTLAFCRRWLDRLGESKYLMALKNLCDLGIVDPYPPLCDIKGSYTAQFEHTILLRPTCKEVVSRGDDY

As a reminder, the IC50 is the midpoint of a concentration-inhibition curve. Regarding `COc1c(-c2ccoc2)ccc(CS(=O)(=NC#N)c2ccccc2)c1C(=O)O` (stereo not drawn) [6-[(N-cyano-S-phenylsulphonimidoyl)methyl]-3-(furan-3-yl)-2-methoxybenzoic acid], the half-inhibitory concentration (IC50) was less than 0.2 µM.
The result for `COc1c(-c2ccoc2)ccc(CS(=O)(=O)N2CCCC2)c1C(=O)O` [3-(Furan-3-yl)-2-methoxy-6-(pyrrolidin-1-ylsulphonylmethyl)-benzoic acid] reads 0.2 to 2 µM.
The result for `COc1c(C2CC2)ccc(CS(=O)(=O)c2ccccc2)c1C(=O)O` [6-(Benzenesulphonylmethyl)-3-cyclopropyl-2-methoxy-benzoic acid] reads 0.2 to 2 µM; that for `COc1c(-c2cnco2)ccc(CS(=O)(=O)c2ccccc2)c1C(=O)O` [6-(Benzenesulphonylmethyl)-2-methoxy-3-(oxazol-5-yl)benzoic acid], 0.2 to 2 µM.
The result for `COc1c(C2CCOC2)ccc(CS(=O)(=O)C2CC3CCC2CC3)c1C(=O)O` (stereo not drawn) [6-(Bicyclo[2.2.2]octane-2-ylsulphonylmethyl)-2-methoxy-3-(tetrahydrofuran-3-yl)benzoic acid] reads greater than 2 µM.
Take `COc1c(-c2ccoc2)ccc(CS(=O)(=O)c2ccccc2Cl)c1C(=O)O` [6-(2-Chlorobenzenesulphonylmethyl)-3-(furan-3-yl)-2-methoxybenzoic acid]: the 50% inhibitory concentration (IC50) lay in the range of 0.2 to 2 µM.
Take `COc1c(-c2ccoc2)ccc(CS(=O)(=O)N2C3CCC2CC3)c1C(=O)O` [6-(7-Azabicyclo[2.2.1]heptane-7-ylsulphonylmethyl)-3-(furan-3-yl)-2-methoxybenzoic acid]: the half-inhibitory concentration (IC50) lay in the range of 0.2 to 2 µM.
The result for `COc1c(-c2ccoc2)ccc(CS(=O)(=O)c2ccccc2/C=C\CN2CCCCC2)c1C(=O)O` [(Z)-3-(Furan-3-yl)-2-methoxy-6-((2-(3-(piperidin-1-yl)prop-1-enyl)benzenesulfonyl)methyl)benzoic acid] reads less than 0.2 µM; that for `COc1c(-c2ccon2)ccc(CS(=O)(=O)c2ccccc2)c1C(=O)O` [6-(Benzenesulphonylmethyl)-3-(isoxazol-3-yl)-2-methoxybenzoic acid], greater than 2 µM.
The result for `CCN(CC)C/C=C/c1ccccc1S(=O)(=O)Cc1ccc(-c2ccoc2)c(OC)c1C(=O)O` [(E)-6-((2-(3-(diethylamino)prop-1-enyl)benzenesulfonyl)methyl)-3-(furan-3-yl)-2-methoxybenzoic acid] reads 0.2 to 2 µM; that for `CCN(CC)CCCNc1ccccc1S(=O)(=O)Cc1ccc(-c2ccoc2)c(OC)c1C(=O)O` [6-[2-(3-Diethylaminopropylamino)benzenesulphonylmethyl]-3-(furan-3-yl)-2-methoxybenzoic acid], less than 0.2 µM.
The result for `CCCc1ccc(CS(=O)(=O)c2ccccc2)c(C(=O)O)c1OC` [6-(Benzenesulphonylmethyl)-2-methoxy-3-propyl-benzoic acid] reads greater than 2 µM.
Turning to `COCCOc1c(-c2ccoc2)ccc(CS(=O)(=O)c2ccccc2)c1C(=O)O` [6-(Benzenesulphonylmethyl)-3-(furan-3-yl)-2-(2-methoxyethoxy)-benzoic acid], the IC50 was greater than 2 µM.
For the molecule `CCc1ccc(CS(=O)(=O)c2ccccc2)c(C(=O)O)c1-c1cc[nH]n1` [6-(Benzenesulphonylmethyl)-3-ethyl-2-(1H-pyrazol-3-yl)benzoic acid], the IC50 lay in the range of 0.2 to 2 µM.
With `COc1c(C#N)ccc(CS(=O)(=O)c2ccccc2)c1C(=O)O` [6-(Benzenesulphonylmethyl)-3-cyano-2-methoxy-benzoic acid], the IC50 is greater than 2 µM.
The result for `N#CCOc1c(-c2ccoc2)ccc(CS(=O)(=O)c2ccccc2)c1C(=O)O` [6-(Benzenesulphonylmethyl)-2-(cyanomethoxy)-3-(furan-3-yl)benzoic acid] reads less than 0.2 µM; that for `COc1c(-c2ccoc2)ccc(CS(=O)(=O)c2ccccc2)c1C(=O)O` [6-(Benzenesulphonylmethyl)-3-(furan-3-yl)-2-methoxy-benzoic acid], less than 0.2 µM.
The result for `COc1c(-c2ccoc2)ccc(CS(=O)(=O)C2CCCCC2)c1C(=O)O` [6-(Cyclohexanesulphonylmethyl)-3-(furan-3-yl)-2-methoxybenzoic acid] reads 0.2 to 2 µM; that for `CN(C)CCOc1c(-c2ccoc2)ccc(CS(=O)(=O)c2ccccc2)c1C(=O)O` [6-(Benzenesulphonylmethyl)-2-(2-dimethylaminoethoxy)-3-(3-furanyl)benzoic acid hydrochloride], greater than 2 µM.
The result for `COc1c(-c2cncs2)ccc(CS(=O)(=O)c2ccccc2)c1C(=O)O` [6-(Benzenesulphonylmethyl)-2-methoxy-3-(thiazol-5-yl)benzoic acid] reads 0.2 to 2 µM.
As to `CCc1ccc(CS(=O)(=O)c2ccccc2)c(C(=O)O)c1OC` [6-(Benzenesulphonylmethyl)-3-ethyl-2-methoxy-benzoic acid], the IC50 was 0.2 to 2 µM.
The result for `CC#Cc1c(-c2ccoc2)ccc(CS(=O)(=O)c2ccccc2)c1C(=O)O` [6-(Benzenesulphonylmethyl)-3-(furan-3-yl)-2-(prop-1-yn-1-yl)benzoic acid] reads greater than 2 µM.
Regarding `CC(N)COc1c(-c2ccoc2)ccc(CS(=O)(=O)c2ccccc2)c1C(=O)O` (stereo not drawn) [2-(2-Aminopropoxy)-6-(benzenesulphonylmethyl)-3-(furan-3-yl)-benzoic acid hydrochloride], the half-inhibitory concentration (IC50) was greater than 2 µM.
The result for `O=C(O)c1c(CS(=O)(=O)c2ccccc2)ccc(-c2ccoc2)c1OC1CNC1` [2-(Azetidin-3-yloxy)-6-(benzenesulphonylmethyl)-3-(furan-3-yl)-benzoic acid hydrochloride] reads greater than 2 µM; that for `COc1c(-c2ccoc2)ccc(CS(=O)(=O)C2CC3CCC2CC3)c1C(=O)O` (stereo not drawn) [6-(Bicyclo[2.2.2]octane-2-ylsulphonylmethyl)-3-(furan-3-yl)-2-methoxybenzoic acid], greater than 2 µM.
For the molecule `CCN(CC)CCCc1ccccc1S(=O)(=O)Cc1ccc(-c2ccoc2)c(OC)c1C(=O)O` [6-[2-(3-Diethylaminopropyl)benzenesulphonylmethyl]-3-(furan-3-yl)-2-methoxybenzoic acid], the 50% inhibitory concentration (IC50) is less than 0.2 µM.
The result for `O=C(O)c1cc(-c2ccoc2)ccc1CS(=O)(=O)c1ccccc1` [2-(Benzenesulphonylmethyl)-5-(furan-3-yl)benzoic acid] reads 0.2 to 2 µM; that for `COc1c(-c2ccoc2)ccc(CS(=O)(=O)N2CCCCC2)c1C(=O)O` [3-(Furan-3-yl)-2-methoxy-6-(piperidine-1-ylsulphonylmethyl)benzoic acid], less than 0.2 µM.
In the case of `COc1cccc(S(=O)(=O)Cc2ccc(-c3ccoc3)c(OC)c2C(=O)O)c1` [3-(Furan-3-yl)-6-(3-methoxybenzenesulphonylmethyl)-2-methoxybenzoic acid], the IC50 is greater than 2 µM.
The result for `COc1c(-c2cc[nH]n2)ccc(CS(=O)(=O)c2ccccc2)c1C(=O)O` [6-(Benzenesulphonylmethyl)-2-methoxy-3-(pyrazol-3-yl)benzoic acid] reads greater than 2 µM.
For the molecule `Cn1nccc1-c1ccc(CS(=O)(=O)c2ccccc2)c(C(=O)O)c1` [2-(Benzenesulphonylmethyl)-5-(2-methyl-2H-pyrazol-3-yl)benzoic acid], the IC50 is greater than 2 µM.
The result for `CCc1ccc(CS(=O)(=O)c2ccccc2C)c(C(=O)O)c1OC` [3-Ethyl-2-methoxy-6-(2-methylbenzenesulphonylmethyl)benzoic acid] reads 0.2 to 2 µM.
The result for `COc1c(-c2nccs2)ccc(CS(=O)(=O)c2ccccc2)c1C(=O)O` [6-(Benzenesulphonylmethyl)-2-methoxy-3-(thiazol-2-yl)benzoic acid] reads greater than 2 µM; that for `CCc1ccc(CS(=O)(=O)c2ccccc2)c(C(=O)O)c1` [2-(Benzenesulphonylmethyl)-5-ethylbenzoic acid], 0.2 to 2 µM; that for `COc1c(-c2cnsc2)ccc(CS(=O)(=O)c2ccccc2)c1C(=O)O` [6-(Benzenesulphonylmethyl)-3-(isothiazol-4-yl)-2-methoxybenzoic acid], 0.2 to 2 µM.
Consider `COc1c(-c2ccco2)ccc(CS(=O)(=O)c2ccccc2)c1C(=O)O` [6-(Benzenesulphonylmethyl)-3-(furan-2-yl)-2-methoxy-benzoic acid], for which the half-inhibitory concentration (IC50) was greater than 2 µM.
The result for `NCCCc1c(-c2ccoc2)ccc(CS(=O)(=O)c2ccccc2)c1C(=O)O` [2-(3-Aminopropyl)-6-(benzenesulphonylmethyl)-3-(furan-3-yl)-benzoic acid hydrochloride] reads greater than 2 µM; that for `COc1cccc(CS(=O)(=O)c2ccccc2C)c1C(=O)O` [2-Methoxy-6-(2-methylbenzenesulphonylmethyl)benzoic acid], greater than 2 µM; that for `COc1c(Br)ccc(CS(=O)(=O)c2ccccc2)c1C(=O)O` [6-(Benzenesulphonylmethyl)-3-bromo-2-methoxybenzoic acid], 0.2 to 2 µM.
The result for `O=C(O)c1c(CS(=O)(=O)c2ccccc2)ccc(-c2ccoc2)c1OCCO` [6-(Benzenesulphonylmethyl)-3-(furan-3-yl)-2-(2-hydroxyethoxy)benzoic acid] reads less than 0.2 µM; that for `COc1cc(CS(=O)(=O)c2ccccc2)c(C(=O)O)c(OC)c1-c1ccoc1` [6-(Benzenesulphonylmethyl)-3-(furan-3-yl)-2,4-dimethoxybenzoic acid], 0.2 to 2 µM; that for `COc1c(-c2cccs2)ccc(CS(=O)(=O)c2ccccc2)c1C(=O)O` [6-(Benzenesulphonylmethyl)-2-methoxy-3-(thien-2-yl)benzoic acid], greater than 2 µM.
